Source: patent EP0656355A1, “BIPHENYLMETHANE DERIVATIVE AND MEDICINE CONTAINING THE SAME” (WAKUNAGA SEIYAKU KABUSHIKI KAISHA, priority 1992, dated 1994)
pIC50: −log10 of the molar value.

What was measured:
[1] = tested on: angiotensin II contraction in longitudinal ileac muscles; test: Inhibitory activity to angiotensin II contraction in longitudinal ileac muscles excised from a guinea pig; format: cell-based, Hartley male guinea pig; settings: Cavia porcellus, 20 min; 50% contraction inhibition concentration; 10⁻⁸M angiotensin II; test compound reacted for 20 minutes; guinea pig ileum longitudinal muscle; read-out: IC₅₀
Method: (2) Inhibitory activity to angiotensin II contraction in longitudinal ileac muscles excised from a guinea pig
A Hartley male guinea pig (350-450 g in weight) was sacrificed under exsanguination, followed by the excision of its ileum.
A longitudinal muscle tissue (2 cm long) was prepared from the ileum in a manner known per se in the art. The sample was suspended in a 20-mℓ Magnus cylinder filled with a Tylode solution [composition (mM): NaCℓ 137, KCℓ 2.7, CaCℓ₂ 1.88, MgCℓ₂ 1.1, NaH₂PO₄ 0.4, NaH₂CO₃ 11.8 and glucose 5.6). The Tylode solution was incubated at 37°C and saturated with a mixed gas consisting of 95% O₂ + 5% CO₂. Using an isometric transducer ("TB-611T", manufactured by Nihon Kohden Corporation), variations in contraction were measured. The measurement results were recorded on a computer ("PC-9801", manufactured by NEC Corporation).
Under a load of 0.5 g initial tension, the longitudinal muscle sample was equilibrated in a nutrient solution for about one hour while being washed therewith at intervals of 15 minutes. Then, contracture by the administration of 80 mM of KCℓ was repeated twice. After conforming that the contraction occurred stably, the following test was conducted.
First, 10^-8M angiotensin II was administered to the sample and its maximum contraction was recorded. The test compound was then administered to the sample and they were reacted for 20 minutes. Administered again was 10⁻⁸M angiotensin II and the maximum contraction was measured. […] This test was repeated at increased concentrations of the test compound. A 50% contraction inhibition concentration (IC₅₀) was determined in accordance with a linear regressive calculation of the contraction inhibition rates.

renal hypertensive rats [2] = test: Antihypertensive action on renal hypertensive rats (invasive); format: in vivo, male SD rat; settings: decreased rate of mean blood pressure; orally administered at 3 mg/kg; femoral artery cannula
Excerpt: (4) Antihypertensive action on renal hypertensive rats (invasive)
Renal hypertensive rats were each prepared by constricting the left renal artery of a male SD rat (age: 6 weeks old, body weight: 190-220 g) with a silver clip (inner diameter: 0.017 inch) under anesthesia. Antihypertensive action was studied employing the rats whose mean blood pressure arose to 150 mmHg or higher in 4-8 weeks after the constriction of the renal artery. On the day before the test, a cannula for measure of blood pressure was inserted into the femoral artery of each of the renal hypertensive rats under anesthesia and was allowed to remain in the artery. The rats were maintained on food and water ad libitum until immediately before the test was started. The cannula so inserted was connected to a blood pressure transducer and mean blood pressure was recorded on a polygraph. After the blood pressure became stable, the test compound which was suspended in 0.5% carboxymethyl cellulose was orally administered to each of the rats at 3 mg/kg. In accordance with the following equation, a decreased rate of blood pressure (%) was calculated from the blood pressure values before and after the administration of the test compound. [formula]

renal hypertensive rats [3] = test: Antihypertensive action on renal hypertensive rats (non-invasive); format: in vivo, male SD rat; settings: decreased rate of systolic blood pressure; orally administered at 10 mg/kg; non-invasive sphygmomanometer
Excerpt: (3) Antihypertensive action on renal hypertensive rats (non-invasive)
Renal hypertensive rats were each prepared by constricting the left renal artery of a male SD rat (age: 6 weeks old, body weight: 200-220 g) with a silver clip (inner diameter: 0.017 inch) under anesthesia. The rats whose systolic blood pressure arose to 160 mmHg or higher in 4-8 weeks after the constriction of the renal artery were used for the test. The rats were maintained on food and water ad libitum until immediately before the test was started. Each test compound which was suspended in 0.5% methyl cellulose was orally administered at 10 mg/kg. After the administration of the test compound, the systolic blood pressure was measured periodically by a non-invasive sphygmomanometer ("BP-98", manufactured by SOFTLON K.K.). In accordance with the following equation, a decreased rate of blood pressure (%) was calculated from the blood pressure values before and after the administration of the compound. [formula]

[4] = target: T1, angiotensin II (AII) receptor (Rattus norvegicus, UniProt P25095); test: Inhibitory action against the binding with angiotensin II (AII) receptor, 125I-AII competition on cultured rat aortic smooth muscle cells; set-up: species or system male Wistar rat; settings: 50% substitution of ¹²⁵I-AII specific binding; ¹²⁵I-AII 2 x 10⁻¹⁰M; one hour at room temperature; rat vascular smooth muscle cells; read-out: IC₅₀
T1 construct: Vascular smooth muscle cells, which had been separated from the aorta of a male Wistar rat and cultured on a 24-well multiplate; endogenous in cells; host or cells: primary cultured vascular smooth muscle cells from the aorta of a male Wistar rat
T1 sequence (P25095 1-359): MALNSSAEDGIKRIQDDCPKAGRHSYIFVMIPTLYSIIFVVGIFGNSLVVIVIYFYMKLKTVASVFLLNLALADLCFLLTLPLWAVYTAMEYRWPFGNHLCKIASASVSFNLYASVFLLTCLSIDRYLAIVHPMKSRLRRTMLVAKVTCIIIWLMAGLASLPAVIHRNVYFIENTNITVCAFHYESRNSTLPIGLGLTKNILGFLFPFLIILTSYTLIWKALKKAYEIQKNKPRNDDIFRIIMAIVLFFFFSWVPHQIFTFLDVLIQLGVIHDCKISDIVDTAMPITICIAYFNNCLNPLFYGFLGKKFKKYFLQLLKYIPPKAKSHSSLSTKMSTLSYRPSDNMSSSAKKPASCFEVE
Method: (1) Inhibitory action against the binding with angiotensin II (AII) receptor, using cultured rat aortic smooth muscle cells The present test was conducted in accordance with the method reported by Chiu et al. in European Journal of Pharmacology, 157, 13-21(1988), though after some modifications. […] To each well, ¹²⁵I-AII (final concentration: 2 x 10⁻¹⁰M) was added together with or without a test compound to give a total volume of 0.2 mℓ. Then the wells were incubated for one hour at room temperature to make the ¹²⁵I-AII and the test compound competitively bind to the vascular smooth muscle cells. Each well was thereafter washed with an ice-cold buffer three times to remove unbound ¹²⁵I-AII. To the cells, 0.2 mℓ of a 1 mol/ℓ solution of sodium hydroxide was added to solubilize the bound ¹²⁵I-AII. A bound amount of ¹²⁵I-AII contained in the resulting cell solution was measured by a gamma counter. The above test was conducted for each compound at different concentrations of 3 doses or more. The inhibition rate against the specific binding with ¹²⁵I-AII at each concentration was calculated in accordance with an equation to be set out subsequently herein.

Row | SMILES | pIC50 [1] | Maximum action (%) (renal hypertensive rats [2]) | Maximum action (%) (renal hypertensive rats [3]) | pIC50 [4]
1 | CCc1nn(Cc2ccc(-c3ccccc3-c3nn[nH]n3)cc2)c(=NC(=O)C2CCCCC2C(=O)O)s1 (racemic) [Compound No.158, cis-2-[[5-Ethyl-3-[2'-(1H-tetrazol-5-yl)biphenyl-4-yl]methyl-1,3,4-thiadiazoline-2-yliden]aminocarbonyl] cyclohxanecarboxylic acid] | 9.29 | 38.4 |  | 
2 | Cc1nn(Cc2ccc(-c3ccccc3-c3nnn[nH]3)cc2)c(=NC(=O)C2CC2)s1 [Compound No.17, 2-Cyclopropylcarbonylimino-5-methyl-3-[2'-(1H-tetrazol-5-yl)biphenyl-4-yl]methyl-1,3,4-thiadiazoline] | 8.12 |  | 25.9 | 
3 | CCCc1nn(Cc2ccc(-c3ccccc3-c3nnn[nH]3)cc2)c(=NC(=O)C2CC2)s1 [Compound No.21, 2-Cyclopropylcarbonylimino-5-n-propyl-3-[2'-(1H-tetrazol-5-yl)biphenyl-4-yl]methyl-1,3,4-thiadiazoline] | 8.10 |  | 26.3 | 
4 | CCc1nn(Cc2ccc(-c3ccccc3-c3nnn[nH]3)cc2)c(=NC(=O)c2ccccc2C(=O)O)s1 [Compound No.126, N-[5-Ethyl-3-[2'-(1H-tetrazol-5-yl)biphenyl-4-yl]methyl-1,3,4-thiadiazoline-2-yliden]phthalamic acid] |  | 27.6 |  | 7.49
5 | O=C(O)c1csc(=NC(=O)C2CC2)n1Cc1ccc(-c2ccccc2-c2nnn[nH]2)cc1 [Compound No.242, 2-Cyclopropylcarbonylimino-3-[2'-(1H-tetrazol-5-yl)biphenyl-4-yl]methylthiazoline-4-carboxylic acid] |  | 29.5 |  | 7.89
6 | CCc1nn(Cc2ccc(-c3ccccc3-c3nnn[nH]3)cc2)c(=NC(=O)C2=C(C(=O)O)CCC2)s1 [Compound No.130, 2-[[5-Ethyl-3-[2'-(1H-tetrazol-5-yl)biphenyl-4-yl]methyl-1,3,4-thiadiazoline-2-yliden]aminocarbonyl]-1-cyclopenten carboxylic acid] | 9.19 | 41.2 |  | 
